Reference: article PMC10082216 (Nature Communications, 2023)
pIC50: −log10 of the molar value. Structures can show the parent of a compound that is named as a salt. Where two headings read alike, the source gives them in different places.

How the values were obtained:
[1] = tested on: mature stage V gametocytes (NF54 strain); assay: microbe, parasite or virus in culture; format: cell-based, Plasmodium falciparum; conditions: for outcome of primary screen (hit definition): 1.11 µM
Method: (§1) Screening was conducted as previously described. Briefly, mature stage V gametocytes (NF54 strain) were cultured in vitro, then exposed to the explored compounds and filtered thereafter through layers of microspheres (microsphiltration)[25],[28]. Stiffening activity was determined by comparing gametocytemia up and downstream from the microsphere layers after filtration of drug-exposed gametocytes in 384-well plates using a vacuum manifold. Gametocytemia was assessed using DNA (Sybr Green) and erythrocyte membrane (CellMask) staining. Killing effect was assessed by MitoTracker staining. We screened two small libraries, specifically the Pathogen Box from the Medicine for Malaria Venture and the Kinase Inhibitors Box from GSK (400 and 350 compounds, respectively, Fig. 1A, B), and furthermore the larger ReFrame repurposing library (12,805 compounds, Fig. 1C).
(§2) The Pathogen Box library (400 compounds, provided by MMV-Medicine for Malaria Ventures, Geneva, Switzerland), the Kinase Inhibitors Box library (350 compounds, provided by GSK-Glaxo SmithKline DDW Unit, Tres Cantos, Spain), and the ReFrame library (12,805 compounds provided by the California Institute for Biomedical Research-Calibr, La Jolla, CA, USA) were used according to the providers’ instructions. DMSO-solubilized compounds (10 mM stock concentration) were loaded in 384-well plates (Seahorse, cat. no. 201035−100). Two columns were left empty for the controls. For each compound, 5 nL were pre-spotted in a single well to reach a final concentration of 1.11 μM. The final volume for each well was 45 μl. Controls were prepared as follows: 22.5 nL of DMSO were loaded in 16 wells as negative controls (0.05% final concentration); 22.5 nL of NITD609 (provided by MMV, Geneva, Switzerland) 1 mM were loaded in 8 wells (0.5 μM final concentration), 17 nL of Calyculin A (Sigma, cat. no. C5552) […] were loaded in 6 wells (75 nM final concentration) and 225 nL of Gentian Violet (MolPort, cat. no. 002-133-551) 10 mM were loaded in the remaining 2 wells (50 μM final concentration). Plates were prepared in triplicate for the Pathogen Box and sextuplicate for the Kinase Inhibitors Box.
(§3) Plasmodium falciparum NF54 strain parasites (used for screening campaign) were cultured at 4% hematocrit in RBCs from informed blood donors (blood group A) as previously described. Parasites were taken from the -80 °C freezer, then rapidly melt for 1 minute in a 37 °C water bath. A saline solution was gently added to avoid the lysis. Firstly, NaCl dissolved at 12% in distilled water (1/5 of the volume measured in the cryovial) and then NaCl dissolved at 1.6% (9 times the cryovial’s volume). After that, fresh RBCs were added to allow parasites re-growth. Infected RBCs were kept in RPMI medium (Sigma-Aldrich, cat. no. R4130), supplemented with 10% of decomplemented human serum, hypoxanthine 50 mg/l (Sigma-Aldrich, cat. no. H9636). Biobank of Castilla y Leon and Centro de Transfusiones de Madrid as providers of human red blood cell concentrates. The production of gametocytes was induced from a 0.5% ring-stage parasitemia (day 0). Medium was changed daily to induce gametocytes differentiation, as previously described. At day 17, gametocytes were concentrated using a density gradient medium (NycoPrep 1.077, Progen cat. no. 1114550)[27]. Parasitemia was adjusted by FACS (SYBR-Green and MitoTracker double staining, 3–5% targeted). Hematocrit was adjusted to 0.5% by adding fresh RBCs and controlled by manual counting in a Neubauer chamber (Celeromics, cat. no. 717810). Finally, the gametocyte suspension was poured (45 μL/well) into the compound-containing 384-well microplate, then incubated 24 hours both for the screening campaign and the dose-response analysis. Both asexual and sexual stages were cultivated in RPMI 1640 supplemented with 25 mM HEPES, 50 mg/L hypoxanthine, 50 μg/mL gentami-cin, 10% pooled heat-inactivated human serum (A^+).

[2] = tested on: mature stage V gametocytes (NF54 strain); assay: High-throughput screening: killing effect by MitoTracker staining, primary screening at 1.11 µM and dose-response analysis; format: cell-based, Plasmodium falciparum; conditions: for pIC50: stage V gametocytes NF54, 24 h, dose-response analysis, N/A = not active in dose-response analysis, read-out: Killing IC50
Method: as §1, §2, §3

[3] = Hit scoring on safety in human subjects and pharmacokinetics; conditions: for Score (PK): peak plasma concentration vs IC50
Source text: Hits from the ReFrame library were further selected based on safety, preferably oral administration (high score if oral), and potential availability for widespread use.

[4] = stage V gametocytes NF54, 24 h, dose-response analysis, N/A = not active in dose-response analysis, read-out: Stiffening IC50 (retention)
[5] = Plasmodium falciparum, NF54, 24 h, read-out: Stiffening IC50 (retention)
[6] = Plasmodium falciparum, NF54, 24 h

Compound: CCCCN(CCCC)c1ccc2nc3ccc(=[N+](CCCC)CCCC)cc-3sc2c1 [PPA904]
- pIC50 [1, 4]: 5.30
- pIC50 [2]: 5.62

Compound: CC[C@@H](C(=O)O)[C@@H]1O[C@@H]([C@@H](C)[C@H](O)[C@H](C)C(=O)[C@H](CC)[C@H]2O[C@]3(C=C[C@@H](O)[C@]4(CC[C@@](C)([C@H]5CC[C@](O)(CC)[C@H](C)O5)O4)O3)[C@H](C)C[C@@H]2C)[C@@H](C)C[C@@H]1C [Narasin]
- pIC50 [1, 5]: 4.37
- pIC50 ([2]; Plasmodium falciparum): 4.34

Compound: C/C=C1\NC(=O)[C@H]2CSSCC/C=C/[C@H](CC(=O)N[C@H](C(C)C)C(=O)N2)OC(=O)[C@H](C(C)C)NC1=O [Romidepsin]
- pIC50 [1, 5]: 5.30
- pIC50 ([2]; Plasmodium falciparum): 4.70

Compound: [O-][n+]1ccccc1SSc1cccc[n+]1[O-] [Bispyrithione]
- pIC50 [1, 5]: 5.63
- pIC50 ([2]; Plasmodium falciparum): 6.04

Compound: CC(C)NC(=N)NC(=N)Nc1ccc(Cl)c(Cl)c1.Cl [Chlorproguanil hydrochloride]
- pIC50 [1, 4]: 4.99
- Score (safety) [3]: 0
- Score (PK) [3]: 1 (Peak plasma concentration lower than 1/3 IC50 (Score = 1))

Compound: COc1cc(N2CCN(C(C)C)CC2)ccc1Nc1nc(Nc2ccc(F)cc2C(N)=O)c2cc[nH]c2n1 [GSK1220512A]
- pIC50 [1, 5]: 5.64
- pIC50 [2, 6]: 4.77

Compound: C[CH2][Hg][S]c1ccccc1C(=O)[O-].[Na+] [Thimerosal]
- pIC50 [1, 4]: 6.03
- pIC50 [2]: 5.82

Compound: CN(C)c1ccc2c(c1)Sc1cc(N(C)C)ccc1N2 [Leuco methylthioninium salt]
- pIC50 [2]: 4.63
- Score (safety) [3]: 0
- Score (PK) [3]: 0

Compound: CC(C)(C)NCc1ccc(Nc2ccnc3cc(Cl)ccc23)cc1O [N-tert-butylisoquine]
- pIC50 [1, 5]: 5.02
- pIC50 [2, 6]: 5.02
- Score (safety) [3]: 0
- Score (PK) [3]: 0

Compound: CC(O)C(=O)O.Cc1[nH]c2ccccc2c1CCNCc1ccc(/C=C/C(=O)NO)cc1 [Panobinostat lactate]
- pIC50 [1, 4]: 6.66
- pIC50 [2]: 6.52
- Score (safety) [3]: 0
- Score (PK) [3]: 0

Compound: CN(C)c1ccc2nc3ccc(=[N+](C)C)cc-3sc2c1 [Methylthioninium chloride]
- pIC50 ([1]; Plasmodium falciparum, NF54, 24 h, read-out: Stiffening IC50 (retention), stage V gametocytes NF54, 24 h, dose-response analysis, N/A = not active in dose-response analysis): 5.55
- pIC50 [2, 6]: 5.31

Compound: COC(=O)[C@@]12OC[C@]34[C@H]([C@@H](O)[C@@H]1O)[C@@]1(C)CC(=O)C(O)=C(C)[C@@H]1C[C@H]3OC(=O)[C@H](OC(=O)/C=C(\C)C(C)C)[C@@H]24 [Bruceantin]
- pIC50 [1, 5]: 7.70
- pIC50 ([2]; Plasmodium falciparum): 6.80

Compound: O=C([O-])[C@H]([O-])[C@@H]([O-])C(=O)[O-].O=C([O-])[C@H]([O-])[C@@H]([O-])C(=O)[O-].[K+].[K+].[Sb+3].[Sb+3] [Potassium antimonyl tartrate]
- pIC50 [1, 4]: 4.97
- pIC50 [2]: 5.44

Compound: COc1ccc(-c2ccc3ncc4c(c3c2)n(-c2ccc(N3CCNCC3)c(C(F)(F)F)c2)c(=O)n4C)cn1 [NVP-BGT226]
- pIC50 [1, 5]: 5.80
- pIC50 [2, 6]: 7.89
- Score (safety) [3]: 0
- Score (PK) [3]: 2 (Peak plasma concentration between 1/3 IC50 and IC50 (Score = 2))

Compound: CNCc1ccc(-c2cc(-c3nc(-c4ccc(S(=O)(=O)C(C)C)cc4)cnc3N)on2)cc1 [VE-822]
- pIC50 [1, 5]: 5.02
- pIC50 [2, 6]: 6.15

Compound: Cl[TeH]1(Cl)(Cl)OCCO1 [Ammonium trichlorotellurate]
- pIC50 [1, 5]: 5.66
- pIC50 [2, 6]: 4.86

Compound: C[C@]12CCC(=NOCCN)C[C@@H]1C(=O)C[C@@H]1[C@@H]2CC[C@]2(C)C(=O)CC[C@@H]12 [Istaroxime]
- pIC50 [1, 5]: 6.77

Compound: Oligomycin A
- pIC50 ([1]; read-out: Stiffening IC50 (retention), stage V gametocytes NF54, 24 h, dose-response analysis, N/A = not active in dose-response analysis): 6.30

Compound: CC[n+]1c(/C=C/c2ccc(N3CCCC3)cc2)cccc1/C=C/c1ccc(N2CCCC2)cc1.[I-] [Stilbazium iodide]
- pIC50 [1, 4]: 5.80
- pIC50 [2]: 5.06
- Score (safety) [3]: 0
- Score (PK) [3]: 0

Compound: Eseroline
- pIC50 [1, 4]: 5.64
- pIC50 [2]: 5.81

Compound: Cc1cc(Nc2ncc(Cl)c(Nc3ccccc3S(=O)(=O)C(C)C)n2)c(OC(C)C)cc1C1CCNCC1 [Ceritinib]
- pIC50 [1, 5]: 4.98
- pIC50 [2, 6]: 5.00
- Score (safety) [3]: 0
- Score (PK) [3]: 0

Compound: COC1=C(OC)C(=O)C(CCCCCCCCCC[P+](c2ccccc2)(c2ccccc2)c2ccccc2)=C(C)C1=O [Mitoquinone mesylate]
- pIC50 [1, 5]: 4.92
- pIC50 [2, 6]: 4.93
- Score (safety) ([3]; human): 3
- Score (PK) [3]: 1 (Peak plasma concentration lower than 1/3 IC50 (Score = 1))

Compound: CCCN1CCCC(c2ccc(Nc3nc(Nc4cc(F)ccc4C(N)=O)c4cc[nH]c4n3)c(OC)c2)C1 (stereo not shown) [GSK1173862A]
- pIC50 [1, 5]: 6.46
- pIC50 [2, 6]: 5.62

Compound: Cn1cc(CNCC2CCN(c3ncc(C(=O)NO)cn3)CC2)c2ccccc21 [Quisinostat]
- pIC50 [1, 5]: 5.46
- pIC50 [2, 6]: 5.28
- Score (safety) [3]: 0
- Score (PK) [3]: 0

Compound: CCCCCCCCN=c1ccn(CCCCCCCCCCn2ccc(=NCCCCCCCC)cc2)cc1 [Octenidine]
- pIC50 [1, 5]: 5.74
- pIC50 [2, 6]: 5.90

Compound: CC(C)C[C@H](NC(=O)[C@H](Cc1ccccc1)NC(=O)c1cnccn1)B(O)O [Bortezomib]
- pIC50 ([2]; Plasmodium falciparum): 5.69

Compound: CCCN1CCC(c2ccc(Nc3nc(Nc4cc(F)ccc4C(N)=O)c4cc[nH]c4n3)c(OC)c2)CC1 [GSK1326255A]
- pIC50 [1, 5]: 6.32
- pIC50 [2, 6]: 5.08

Compound: CN1CC(=O)N2[C@H](c3ccc4c(c3)OCO4)c3[nH]c4ccccc4c3C[C@@H]2C1=O [tadalafil]
- outcome of primary screen (hit definition) [1]: not captured by the primary screen

Compound: COc1cccc(CC(=O)N2CCC(n3c(C)nc4ccc(F)cc43)CC2)c1 [MMV020081]
- pIC50 [1, 4]: 5.83
- pIC50 [2]: 4.53

Compound: COCCn1c2c([n+](Cc3cnccn3)c1C)C(=O)c1ccccc1C2=O [Sepantronium bromide]
- pIC50 [1, 5]: 5.72
- pIC50 [2, 6]: 5.87

Compound: Bismuth ethanedithiol
- pIC50 [1, 4]: 5.82
- pIC50 [2]: 5.89

Compound: CCCCCCCCCCCCCC[n+]1ccc(C)cc1 [Myristyl-gamma picolinium chloride]
- pIC50 [1, 4]: 5.14
- pIC50 [2]: 5.38

Compound: Gramicidin
- pIC50 [1, 4]: 7.15
- killing IC50 in words ([2]; gametocytes): low nanomolar range
- pIC50 [2]: 8.10

Compound: CCCc1nn(C)c2c(=O)[nH]c(-c3cc(S(=O)(=O)N4CCN(C)CC4)ccc3OCC)nc12 [sildenafil]
- outcome of primary screen (hit definition) [1]: not captured by the primary screen

Compound: CC[C@H]1/C=C/C=C/C[C@@H](C)[C@H](O)[C@@](C)(O)C(=O)[C@@H](C)[C@H](O)[C@@H](C)C(=O)[C@@H](C)[C@H](O)[C@@H](C)/C=C/C(=O)O[C@@H]2[C@H](C)[C@H](CC1)O[C@@]1(O[C@@H](C[C@@H](C)O)[C@@H](C)CC1=O)[C@H]2C [Oligomycin B]
- pIC50 [1, 4]: 5.81
- pIC50 [2]: 5.24

Compound: CCCC1(CCC)CCC2(CCN(CCCN(CC)CC)C2)CC1.O=C(O)/C=C\C(=O)O.O=C(O)/C=C\C(=O)O [Atiprimod dimaleate]
- pIC50 [2]: 5.18
- Score (safety) [3]: 0
- Score (PK) [3]: 0
